Values of other authors in patent US20130316000A1, “COMPOSITIONS AND METHODS FOR TREATMENT OF IRRITABLE BOWEL SYNDROME WITH 5-AMINOSALICYLATE” (priority 2012, published 2013).

## Nc1ccc(O)c(C(=O)O)c1 [mesalamine, 5-aminosalicylic acid]
  concentration detected in human breast milk: low concentrations
